Measured values from PubChem BioAssay (NCI).
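Where inhibition never reached the appropriate level, the endpoint shown equals the highest concentration tested. Otherwise, values were interpolated linearly from a five-concentration, 48-hour dose response in 96-well plates. TGI marks complete inhibition of growth.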

Experiments:
Test in all cases: inhibition of tumour cell growth, NCI panel, 48 h
[1] = test system: SF-295 CNS
[2] = test system: HOP-92 NSCLC
[3] = test system: OVCAR-3 ovarian
[4] = test system: NCI/ADR-RES ovarian
[5] = test system: RXF 393 renal
[6] = test system: MDA-MB-435
[7] = test system: SNB-19 CNS
[8] = test system: T-47D breast
[9] = test system: HCT-15 colon
[10] = test system: IGROV1 ovarian

| Compound | TGI [1] [µM] | TGI [2] [µM] | TGI [3] [µM] | TGI [4] [µM] | TGI [5] [µM] | TGI [6] [µM] | TGI [7] [µM] | TGI [8] [µM] | TGI [9] [µM] | TGI [10] [µM] |
| --- | --- | --- | --- | --- | --- | --- | --- | --- | --- | --- |
| COc1ccccc1N1C(=O)CSC1c1cccc(Oc2ccccc2)c1 (stereo not drawn) | 41.1 | 26.5 | 45.1 | 46.2 | 33.6 | 32 | 56.1 | 58.1 | 37.4 |  |
| Cc1cc2c3c(nc2c2cc[nH]c(C)c12)CCCC3 | 3.93 | 7.3 | 5.07 | 19.5 |  | 3.63 |  | 4.53 | 3.54 | 5.4 |
| Brc1ccc2nc(-c3cccs3)nc(N3CCN(c4ccccc4)CC3)c2c1 | > 100 | > 100 | > 100 | > 100 |  | > 100 | > 100 | > 100 | > 100 | > 100 |
| CCCC(=O)Oc1c2ccsc2c(OC(=O)CCC)c2ccsc12 | 0.885 | 3.06 | 4.5 | 4.55 | 5.86 | 0.586 | 5.28 | 12.1 | 4.59 | 6.87 |
| CC(C)(C)OC(=O)NCC(c1c[nH]c2cc(Br)ccc12)c1c[nH]c2cc(Br)ccc12 | 36.2 | 28.6 | 29.1 | 35.9 | 32 | 31.9 | 46.2 | 35.2 | 30.2 | 29.4 |
| O=C([O-])c1ccccc1Nc1ccccc1C(=O)[O-].[OH3+].[Zn+2] | 32.2 | 45.7 | 32.9 |  | 42.7 |  | 30.7 |  | > 100 | 18.8 |
| Cc1ccc2c(ccc3ncc(CNc4ccc(NS(C)(=O)=O)cc4)c32)[nH]1 | 59.2 | 90.3 | 43.8 | > 100 | 21.7 | 31.5 | > 100 | 47.7 | > 100 | > 100 |
| Nc1nncc2n[nH]nc12 | > 100 |  | > 100 | > 100 | > 100 | > 100 | > 100 | > 100 | > 100 | > 100 |
| C1=C2C3=[N+](CCCC3)CC2Cc2sccc21 (stereo not drawn) | > 100 | > 100 | > 100 | > 100 | > 100 | > 100 | > 100 | > 100 | > 100 | > 100 |
| COC(=O)c1ccc(NCC2=CC(=O)C=CC2=O)cc1O | 32.3 | 9.27 | 24.7 | 47 | 44 | 82.9 | 48.3 | 47.1 | 34.5 | 41.6 |
| NS(=O)(=O)c1ccc(N=Nc2ccc(O)cc2)cc1 | > 100 | > 100 | > 100 | > 100 | > 100 | > 100 | > 100 | > 100 | > 100 | > 100 |
| Cc1cn(CC2(CO)CCC2)c(=O)[nH]c1=O | > 100 |  | > 100 | > 100 | > 100 | > 100 |  | > 100 | > 100 | > 100 |
| CN1/C(=C\N=O)C(C)(C)N(O)C1(C)C | > 100 | > 100 | > 100 | > 100 |  | > 100 | > 100 | > 100 | > 100 | > 100 |
| O=c1c2ccccc2ncn1COCc1ccccc1 | > 100 | > 100 | > 100 | > 100 | > 100 | > 100 | > 100 |  | > 100 | > 100 |
| COC(=O)CC(C(C(=O)OCc1ccccc1)C(C)O)N1C(=O)OCC1c1ccccc1 (stereo not drawn) | > 100 |  | > 100 |  | > 100 |  | > 100 |  | > 100 | > 100 |
| Cn1c2ccccc2c2c3c(c4c5ccccc5n(C)c4c21)C(=O)N(Cc1ccccc1)C3=O | > 100 | > 100 |  | > 100 |  | > 100 | > 100 | > 100 | > 100 | > 100 |
| O=CC1=CCCN(CCc2c[nH]c3ccccc23)C1 | 112 | 121 | 95.9 |  | 85.8 |  | 92.9 |  | 83.2 | 176 |
| CC1=C(C(=O)O)N2C(=O)[C@@H](NC(=O)C(c3ccccc3)N3CSC(=S)N(C(C)C)C3)C2SC1 (stereo partly drawn) | > 100 | > 100 | > 100 |  |  |  | > 100 |  | > 100 | > 100 |
| CC1CN=C(N(C(=O)Nc2ccc(Cl)cc2)c2cccc(Cl)c2)S1 (stereo not drawn) | > 100 | 65.4 | > 100 | > 100 |  |  | > 100 | > 100 | > 100 | > 100 |
| CCCC(=O)Nc1cc(/C=C/C(=O)N2CC(CCl)c3ccc([N+](=O)[O-])cc32)n(C)c1 (stereo not drawn) | > 100 |  | > 100 | > 100 | > 100 | > 100 | > 100 | > 100 | > 100 | > 100 |
| CCCNC(=O)Cn1c2c(c3ccccc31)CCCC2 | > 100 | > 100 | > 100 | > 100 |  | > 100 | > 100 |  | > 100 | > 100 |
| N#CC12CC(C=O)=C(N)C1(C#N)CC(C=O)=C2N (stereo not drawn) | > 100 | > 100 |  | > 100 | > 100 | > 100 | > 100 | > 100 | 38.5 | > 100 |
| Cc1ccc(F)c2[nH]c(-c3ccccc3)cc(=O)c12 | 43.5 |  | > 100 | > 100 | 21.5 | > 100 | > 100 | > 100 | > 100 | > 100 |
| O=P(O)(O)c1ccc2c(c1)OCCOCCOCCOCCO2 | > 100 |  |  |  |  | > 100 | > 100 | > 100 | > 100 | > 100 |

| Compound | TGI [1] [µM] | TGI [2] [µM] | TGI [3] [µM] | TGI [4] [µM] | TGI [5] [µM] | TGI [6] [µM] | TGI [7] [µM] | TGI [8] [µM] | TGI [9] [µM] | TGI [10] [µM] |
| --- | --- | --- | --- | --- | --- | --- | --- | --- | --- | --- |
| CSc1c(C(N)=S)c(N)nn1-c1ccccc1 |  | > 100 | > 100 | > 100 | > 100 | > 100 | > 100 | > 100 | > 100 | > 100 |
| COc1c(C)c(C/C=C(\C)CC/C=C(\C)CC/C=C(\C)CC/C=C(\C)CCC=C(C)C)c(OC)c(OC)c1OC | 44.2 | 31.8 | > 100 | 59.8 | > 100 | > 100 | > 100 |  | > 100 | 60.3 |
| Cc1cn(C(CO)OC(CO)CN(O)C2C3CC4CC(C3)CC2C4)c(=O)[nH]c1=O (stereo not drawn) | > 100 | > 100 |  |  |  | > 100 | > 100 | > 100 | > 100 | > 100 |
| COC(=O)c1ccc(Oc2nc3ccc(C(F)(F)F)cc3nc2-c2ccccc2)cc1 | > 100 | > 100 | > 100 | > 100 | > 100 | > 100 |  | > 100 | > 100 | > 100 |
| C[C@@H](c1ccccc1)N1C[C@@H](c2ccc3c(c2)OCO3)[C@@H]2C(=O)CCC[C@@H]21 | > 100 | > 100 |  | > 100 | > 100 | > 100 | > 100 | > 100 | > 100 | > 100 |
| COC(=O)Cc1cccc2c(=O)c(S(=O)(=O)NC(=O)Nc3ccc(Cl)cc3)c(-c3ccccc3)oc12 | > 100 | > 100 | > 100 | > 100 |  | > 100 | > 100 |  | > 100 | > 100 |
| C/C1=C\[C@@H](C)C[C@@H](C)OC(=O)[C@@H](C)NC(=O)[C@H](Cc2ccc(O)c(Br)c2)N(C)C(=O)CNC(=O)[C@H](C)C1 | 5.55 | 0.0993 | 0.0243 | > 57 | < 0.0429 | > 44.3 | > 100 |  | 44.2 | 0.033 |
| COC1CC(O[C@H]2CC[C@@]3(C)C(=CCC4(O)C3CCC35C(=O)OC6(C)O[C@@]43CCC65)C2)OC(C)C1O (stereo partly drawn) | > 100 |  |  |  | > 100 |  | > 100 |  | > 100 | > 100 |
| OC(c1cc2ccccc2[nH]1)C(O)(c1cc2ccccc2[nH]1)c1cc2ccccc2[nH]1 (stereo not drawn) | 31.3 | 50.1 | 9.13 |  | 29.1 |  | > 245 |  | 33 | 47.9 |
| C[C@H](CCC(=O)O)[C@H]1CC[C@H]2[C@@H]3[C@H](O)[C@H](O)[C@@H]4C[C@H](O)CC[C@]4(C)[C@H]3CC[C@]12C |  | > 100 |  | > 100 | > 100 | > 100 | > 100 | > 100 | > 100 | > 100 |
| CS(=O)(=O)c1ccc(C(=O)O[C@@H]2C(=O)N3CC[C@H]4OC(O)[C@@H]2[C@H]43)cc1 (stereo partly drawn) | > 100 |  | > 100 | > 100 | > 100 | > 100 | > 100 | > 100 | > 100 |  |
| N=C1c2ccccc2C(=O)c2c(NCCNCCO)ccc(O)c21 | > 40.5 | > 71.2 | 52.7 |  | 18 |  | 84.8 |  | > 63 | 46.8 |
| O=C1/C(=C/c2ccc([N+](=O)[O-])cc2)CCCc2ccccc21 | > 100 | > 100 | > 100 | > 100 |  | > 100 | > 100 |  | > 100 | > 100 |
| Nc1ccc2nc3n(c2c1)C(c1c(F)cccc1F)SC3 (stereo not drawn) | > 100 |  | > 100 | > 100 | > 100 | > 100 | > 100 | > 100 | > 100 | > 100 |
| O=C(CSc1nc2ccc(I)cc2c(=O)n1Cc1ccccc1)NNC(=S)Nc1ccccc1 | > 100 | > 100 | > 100 | > 100 | > 100 | > 100 | > 100 | > 100 | > 100 |  |
| CCOP(=O)(OCC)/C(=C\n1ccc(=O)[nH]c1=S)C(=O)OC | > 100 |  |  | > 100 | > 100 | > 100 |  | > 100 | > 100 | > 100 |
| CC(C)(Oc1ccc2c(=O)cc(-c3ccc(Cl)cc3)oc2c1)C(=O)Nc1c(Cl)cccc1Cl | > 100 | > 100 | > 100 |  |  |  | > 100 |  | > 100 | > 100 |
| CC1=C(O)C(=O)C2C(=O)C1C(C)C2c1ccccc1 (stereo not drawn) | > 100 | > 100 | > 100 |  | > 100 |  | > 100 |  | > 100 | > 100 |
| COc1ccc(C/C=C(\C)CCO)cc1 | > 100 | > 100 | > 100 | > 100 | > 100 | > 100 | > 100 |  | > 100 | > 100 |
| C[n+]1c2ccccc2n2c3ccccc3c(NCc3ccco3)c(C#N)c21 | 16.6 |  | > 49.6 | 9.55 | 6.21 | 4.34 | 26.6 | > 28.7 | 4.34 |  |
| CCCCC1Nc2ccccc2-c2ccnc(Cl)c21 (stereo not drawn) | 47.7 | 40.9 | 25.2 | 99.6 | 40.8 | 41.7 | 77.7 |  | 44.4 | 47.9 |
| CC(C)CC(C#CCCOC(=O)c1ccccc1)OC(=O)c1ccccc1 (stereo not drawn) | > 10 | > 10 | > 10 |  | > 10 | > 10 | > 10 | > 10 | > 10 | > 10 |
| CC(C)(C)c1ccc(NS(=O)(=O)c2ccc(N)cc2)cc1 | 14 |  | 12.9 | 75.9 | 94.1 | 73.5 | > 100 | > 100 | > 100 | 45.2 |
| O=C1C=CC(=O)c2c(O)c(NCCN3CCOCC3)c(Cl)c(O)c21 | 3.41 | 6.39 | 7.26 | 4.88 |  | 4.12 | 3.23 | 4.51 | 3.87 | 3.72 |
